Laboratory results published in PubChem BioAssay (NCI).
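Cells were grown in 96-well plates and exposed to each compound for 48 hours at five concentrations; endpoints were interpolated linearly between bracketing concentrations, or set to the highest concentration if not reached. At the TGI there is no net growth.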

Assays:
Assay in all cases: DTP human tumour cell line panel, 48 h
[1] = tested on: RXF 393 renal
[2] = tested on: UACC-257 melanoma
[3] = tested on: SN12C renal
[4] = tested on: ACHN renal
[5] = tested on: M19-MEL melanoma
[6] = tested on: EKVX NSCLC
[7] = tested on: KM20L2 colon
[8] = tested on: SW-620 colon
[9] = tested on: KM12 colon
[10] = tested on: A549 NSCLC
[11] = tested on: NCI-H23 lung
[12] = tested on: UACC-62 melanoma
[13] = tested on: HCC-2998 colon
[14] = tested on: SNB-75 CNS
[15] = tested on: RPMI-8226 leukemia
[16] = tested on: SNB-78 CNS
[17] = tested on: HOP-92 NSCLC
[18] = tested on: M14 melanoma
[19] = tested on: OVCAR-5 ovarian
[20] = tested on: OVCAR-3 ovarian
[21] = tested on: NCI-H226 lung
[22] = tested on: SK-MEL-28 melanoma
[23] = tested on: SK-MEL-5 melanoma
[24] = tested on: SNB-19 CNS
[25] = tested on: CAKI-1 renal
[26] = tested on: IGROV1 ovarian
[27] = tested on: HCT-116 colon
[28] = tested on: U251 CNS
[29] = tested on: 786-0 renal
[30] = tested on: HOP-62 NSCLC
[31] = tested on: K-562 leukemia
[32] = tested on: SF-539 CNS
[33] = tested on: HCT-15 colon
[34] = tested on: UO-31 renal
[35] = tested on: SF-268 CNS
[36] = tested on: HT29 colon
[37] = tested on: SK-MEL-2 melanoma
[38] = tested on: OVCAR-4 ovarian
[39] = tested on: HOP-18 NSCLC
[40] = tested on: OVCAR-8 ovarian
[41] = tested on: XF 498 CNS
[42] = tested on: SF-295 CNS
[43] = tested on: DMS 114 small cell lung
[44] = tested on: DLD-1 colon
[45] = tested on: HL-60(TB) leukemia
[46] = tested on: DMS 273 small cell lung
[47] = tested on: A498 renal
[48] = tested on: MALME-3M melanoma
[49] = tested on: MOLT-4 leukemia
[50] = tested on: COLO 205 colon
[51] = tested on: CCRF-CEM leukemia
[52] = tested on: LXFL 529 NSCLC
[53] = tested on: SK-OV-3 ovarian
[54] = tested on: NCI-H460 lung
[55] = tested on: TK-10 renal
[56] = tested on: NCI-H522 lung
[57] = tested on: LOX IMVI melanoma

`N#CC(C(=O)CCC(=O)Nc1ccc(Cl)c(Cl)c1)c1ccccc1` (centres undefined) was tested, and the TGI [1] was over 100 µM, the TGI [2] was over 100 µM and the TGI [3] was over 100 µM. The TGI [4] was over 100 µM, the TGI [5] was over 100 µM and the TGI [6] was over 100 µM. It also gave a TGI [7] of over 100 µM, a TGI [8] of over 100 µM and a TGI [9] of over 100 µM. The TGI [10] was over 100 µM, the TGI [11] was over 100 µM and the TGI [12] was over 100 µM. The TGI [13] was over 100 µM, the TGI [14] was over 100 µM and the TGI [15] was over 100 µM. For the same compound, the TGI [16] was over 100 µM, the TGI [17] was over 100 µM and the TGI [18] was over 100 µM. For the same compound, the TGI [19] was over 100 µM, the TGI [20] was over 100 µM and the TGI [21] was over 100 µM. It also gave a TGI [22] of over 100 µM, a TGI [23] of over 100 µM and a TGI [24] of over 100 µM. The TGI [25] was over 100 µM, the TGI [26] was over 100 µM and the TGI [27] was over 100 µM. For the same compound, the TGI [28] was over 100 µM, the TGI [29] was over 100 µM and the TGI [30] was over 100 µM. For the same compound, the TGI [31] was over 100 µM, the TGI [32] was over 100 µM and the TGI [33] was over 100 µM. The TGI [34] was over 100 µM, the TGI [35] was over 100 µM and the TGI [36] was over 100 µM. It also gave a TGI [37] of over 100 µM, a TGI [38] of over 100 µM and a TGI [39] of over 100 µM. For the same compound, the TGI [40] was over 100 µM, the TGI [41] was over 100 µM and the TGI [42] was over 100 µM. It also gave a TGI [43] of over 100 µM, a TGI [44] of over 100 µM and a TGI [45] of over 100 µM. The TGI [46] was over 100 µM, the TGI [47] was over 100 µM and the TGI [48] was over 100 µM. It also gave a TGI [49] of over 100 µM.

Compound `CC1(C)CC(c2c[nH]c3ccccc23)=CC2=Nc3ccccc3C21O` (centres undefined) has a TGI [1] of over 100 µM, a TGI [2] of over 100 µM and a TGI [3] of over 100 µM. The TGI [4] was over 100 µM, the TGI [5] was over 100 µM and the TGI [6] was over 100 µM. It also gave a TGI [7] of over 100 µM, a TGI [50] of over 100 µM and a TGI [51] of over 100 µM. The TGI [52] was over 100 µM, the TGI [8] was over 100 µM and the TGI [9] was over 100 µM. For the same compound, the TGI [10] was over 100 µM, the TGI [11] was over 100 µM and the TGI [12] was over 100 µM. The TGI [14] was 25.4 µM, the TGI [53] was over 100 µM and the TGI [15] was over 100 µM. It also gave a TGI [54] of over 100 µM, a TGI [16] of over 100 µM and a TGI [55] of over 100 µM. It also gave a TGI [17] of 64.3 µM, a TGI [18] of over 100 µM and a TGI [19] of over 100 µM. It also gave a TGI [20] of over 100 µM, a TGI [21] of 57.7 µM and a TGI [22] of 77.7 µM. For the same compound, the TGI [23] was over 100 µM, the TGI [24] was over 100 µM and the TGI [25] was over 100 µM. The TGI [26] was over 100 µM, the TGI [27] was over 100 µM and the TGI [28] was over 100 µM. The TGI [29] was over 100 µM, the TGI [30] was over 100 µM and the TGI [31] was over 100 µM. The TGI [32] was over 100 µM, the TGI [56] was over 100 µM and the TGI [33] was over 100 µM. For the same compound, the TGI [34] was over 100 µM, the TGI [35] was over 100 µM and the TGI [36] was over 100 µM. It also gave a TGI [37] of over 100 µM, a TGI [38] of over 100 µM and a TGI [40] of over 100 µM. For the same compound, the TGI [41] was over 100 µM, the TGI [42] was over 100 µM and the TGI [43] was over 100 µM. It also gave a TGI [44] of over 100 µM, a TGI [45] of over 100 µM and a TGI [46] of over 100 µM. For the same compound, the TGI [47] was over 100 µM, the TGI [48] was over 100 µM and the TGI [57] was over 100 µM. It also gave a TGI [49] of over 100 µM.
